{
  "source": "ChEMBL document CHEMBL1155096",
  "about": "“A regiospecific synthesis of a series of 1-sulfonyl azepinoindoles as potent 5-HT6 ligands” (Bioorg Med Chem Lett, 2008)",
  "key": {"[1]": {"target": "T1, 5-hydroxytryptamine receptor 6 (Homo sapiens, UniProt P50406)", "T1 sequence (P50406 whole entry)": "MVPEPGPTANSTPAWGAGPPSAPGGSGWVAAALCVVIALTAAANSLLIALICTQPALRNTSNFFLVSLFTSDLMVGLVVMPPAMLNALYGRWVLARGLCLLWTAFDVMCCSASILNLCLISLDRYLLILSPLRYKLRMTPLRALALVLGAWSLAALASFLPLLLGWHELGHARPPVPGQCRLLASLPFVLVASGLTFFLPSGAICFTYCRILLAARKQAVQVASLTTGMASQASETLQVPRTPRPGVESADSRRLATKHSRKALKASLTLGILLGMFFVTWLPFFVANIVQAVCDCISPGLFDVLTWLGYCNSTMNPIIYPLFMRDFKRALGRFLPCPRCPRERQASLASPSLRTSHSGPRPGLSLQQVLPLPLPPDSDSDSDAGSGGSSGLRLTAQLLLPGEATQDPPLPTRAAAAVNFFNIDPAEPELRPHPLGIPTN", "experiment": "Displacement of [3H]-LSD from cloned human 5HT6 receptor expressed in HeLa cells", "assay_type": "cell-based"}, "[2]": {"target": "T1, 5-hydroxytryptamine receptor 6", "experiment": "Antagonist activity at cloned human 5HT6 receptor expressed in HeLa cells assessed as production of cAMP", "assay_type": "functional, cell-based"}, "[3]": {"target": "T2, 5-hydroxytryptamine receptor 2C (Homo sapiens, UniProt P28335)", "T2 sequence (P28335 whole entry)": "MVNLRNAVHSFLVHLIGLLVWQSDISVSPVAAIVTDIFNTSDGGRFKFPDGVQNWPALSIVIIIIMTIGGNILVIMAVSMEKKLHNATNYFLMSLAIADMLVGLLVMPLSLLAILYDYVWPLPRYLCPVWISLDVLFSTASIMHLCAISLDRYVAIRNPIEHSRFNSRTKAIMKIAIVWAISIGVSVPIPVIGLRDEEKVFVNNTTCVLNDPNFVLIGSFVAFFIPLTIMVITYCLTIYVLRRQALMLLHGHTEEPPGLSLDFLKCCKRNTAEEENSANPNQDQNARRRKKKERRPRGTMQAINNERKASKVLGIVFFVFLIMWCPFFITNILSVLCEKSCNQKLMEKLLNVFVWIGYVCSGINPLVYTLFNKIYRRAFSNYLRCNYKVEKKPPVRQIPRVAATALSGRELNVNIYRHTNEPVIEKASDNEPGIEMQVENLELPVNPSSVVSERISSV", "experiment": "Inhibition of 5HT2C"}},
  "note": "The source made the active and inactive calls. The rule behind the calls is not given here.",
  "data": [
    {"smiles": "COc1cccc(S(=O)(=O)n2c3c(c4ccccc42)CCN(Cc2ccccc2)CC3)c1", "values": [
      {"measurement": "Ki", "setting": "[1]", "result": 319, "unit": "nM"},
      {"measurement": "Activity", "setting": "[2]", "result": "Active"}
    ]},
    {"smiles": "O=S(=O)(c1ccc(C(F)(F)F)cc1)n1c2c(c3ccccc31)CCNCC2", "values": [
      {"measurement": "Ki", "setting": "[1]", "result": 46, "unit": "nM"},
      {"measurement": "Activity", "setting": "[2]", "result": "Active"}
    ]},
    {"smiles": "COc1cccc(S(=O)(=O)n2c3c(c4ccccc42)CCN(C2CCCC2)CC3)c1", "values": [
      {"measurement": "Ki", "setting": "[1]", "result": 324, "unit": "nM"},
      {"measurement": "Activity", "setting": "[2]", "result": "Active"}
    ]},
    {"smiles": "Cc1ccc(S(=O)(=O)n2c3c(c4ccccc42)CCNCC3)cc1", "values": [
      {"measurement": "Ki", "setting": "[1]", "result": 29, "unit": "nM"},
      {"measurement": "Activity", "setting": "[2]", "result": "Active"}
    ]},
    {"smiles": "COc1cccc(S(=O)(=O)n2c3c(c4ccccc42)CCNCC3)c1", "values": [
      {"measurement": "Ki", "setting": "[1]", "result": 12, "unit": "nM"},
      {"measurement": "Activity", "setting": "[2]", "result": "Active"}
    ]},
    {"smiles": "O=S(=O)(c1ccc2c(Cl)cccc2c1)n1c2c(c3ccccc31)CCNCC2", "values": [
      {"measurement": "Ki", "setting": "[1]", "result": 24, "unit": "nM"},
      {"measurement": "Activity", "setting": "[2]", "result": "Active"}
    ]},
    {"smiles": "COc1cccc(S(=O)(=O)n2c3c(c4ccccc42)CCN(C2CCCCC2)CC3)c1", "values": [
      {"measurement": "Ki", "setting": "[1]", "result": 253, "unit": "nM"},
      {"measurement": "Activity", "setting": "[2]", "result": "Active"}
    ]},
    {"smiles": "Cc1cccc(S(=O)(=O)n2c3c(c4ccccc42)CCNCC3)c1", "values": [
      {"measurement": "Ki", "setting": "[1]", "result": 68, "unit": "nM"},
      {"measurement": "Activity", "setting": "[2]", "result": "Active"}
    ]},
    {"smiles": "CCN1CCc2c(n(S(=O)(=O)c3ccccc3)c3ccccc23)CC1", "values": [
      {"measurement": "Ki", "setting": "[1]", "result": 12, "unit": "nM"},
      {"measurement": "Activity", "setting": "[2]", "result": "Active"}
    ]},
    {"smiles": "CCN1CCc2c(n(S(=O)(=O)c3cccc(OC)c3)c3ccccc23)CC1", "values": [
      {"measurement": "Ki", "setting": "[1]", "result": 50, "unit": "nM"},
      {"measurement": "Activity", "setting": "[2]", "result": "Active"}
    ]},
    {"smiles": "O=S(=O)(c1ccccc1Cl)n1c2c(c3ccccc31)CCNCC2", "values": [
      {"measurement": "Ki", "setting": "[1]", "result": 19, "unit": "nM"},
      {"measurement": "Activity", "setting": "[2]", "result": "Active"}
    ]},
    {"smiles": "O=S(=O)(c1cccc(F)c1)n1c2c(c3ccccc31)CCNCC2", "values": [
      {"measurement": "Ki", "setting": "[1]", "result": 33, "unit": "nM"},
      {"measurement": "Activity", "setting": "[2]", "result": "Active"}
    ]},
    {"smiles": "COc1cccc(S(=O)(=O)n2c3c(c4ccccc42)CCN(CCc2ccccc2)CC3)c1", "values": [
      {"measurement": "Ki", "setting": "[1]", "result": 504, "unit": "nM"},
      {"measurement": "Activity", "setting": "[2]", "result": "Active"}
    ]},
    {"smiles": "CCCN1CCc2c(n(S(=O)(=O)c3cccc(OC)c3)c3ccccc23)CC1", "values": [
      {"measurement": "Ki", "setting": "[1]", "result": 124, "unit": "nM"},
      {"measurement": "Activity", "setting": "[2]", "result": "Active"}
    ]},
    {"smiles": "O=S(=O)(c1ccc(F)cc1)n1c2c(c3ccccc31)CCNCC2", "values": [
      {"measurement": "Ki", "setting": "[1]", "result": 23, "unit": "nM"},
      {"measurement": "Activity", "setting": "[2]", "result": "Active"}
    ]},
    {"smiles": "O=S(=O)(c1cccc(C(F)(F)F)c1)n1c2c(c3ccccc31)CCNCC2", "values": [
      {"measurement": "Ki", "setting": "[1]", "result": 89, "unit": "nM"},
      {"measurement": "Activity", "setting": "[2]", "result": "Active"}
    ]},
    {"smiles": "COc1cccc(S(=O)(=O)n2c3c(c4ccccc42)CCN(C(C)C)CC3)c1", "values": [
      {"measurement": "Ki", "setting": "[1]", "result": 85, "unit": "nM"},
      {"measurement": "Activity", "setting": "[2]", "result": "Active"}
    ]},
    {"smiles": "COc1cccc(S(=O)(=O)n2c3c(c4ccccc42)CCN(C)CC3)c1", "values": [
      {"measurement": "Ki", "setting": "[1]", "result": 19, "unit": "nM"},
      {"measurement": "Activity", "setting": "[2]", "result": "Active"}
    ]},
    {"smiles": "O=S(=O)(c1ccc(Cl)cc1)n1c2c(c3ccccc31)CCNCC2", "values": [
      {"measurement": "Ki", "setting": "[1]", "result": 18, "unit": "nM"},
      {"measurement": "Activity", "setting": "[2]", "result": "Active"}
    ]},
    {"smiles": "O=S(=O)(c1cccc(Cl)c1)n1c2c(c3ccccc31)CCNCC2", "values": [
      {"measurement": "Ki", "setting": "[1]", "result": 41, "unit": "nM"},
      {"measurement": "Activity", "setting": "[2]", "result": "Active"}
    ]},
    {"smiles": "COc1ccccc1S(=O)(=O)n1c2c(c3ccccc31)CCNCC2", "values": [
      {"measurement": "Ki", "setting": "[3]", "result": 14, "unit": "nM"},
      {"measurement": "Ki", "setting": "[1]", "result": 19, "unit": "nM"},
      {"measurement": "IC50", "setting": "[2]", "result": 162, "unit": "nM"}
    ]},
    {"smiles": "COc1ccc(S(=O)(=O)n2c3c(c4ccccc42)CCNCC3)cc1", "values": [
      {"measurement": "Ki", "setting": "[1]", "result": 33, "unit": "nM"},
      {"measurement": "Activity", "setting": "[2]", "result": "Active"}
    ]},
    {"smiles": "O=S(=O)(c1ccccc1)n1c2c(c3ccccc31)CCNCC2", "values": [
      {"measurement": "Ki", "setting": "[1]", "result": 193, "unit": "nM"},
      {"measurement": "Activity", "setting": "[2]", "result": "Active"}
    ]}
  ]
}
